Measurements reported in patent US9527803B2, “Crystal form VII of agomelatine, preparation method and use thereof and pharmaceutical composition containing same” (LES LABORATOIRES SERVIER, priority 2011, dated 2016).
In brackets after ≈: the same amount, converted by molar mass. Like-named read-outs stand apart in the source and are kept apart here.

How the values were obtained:
Format in all cases: physicochemical
[1] = Storage stability of crystalline forms at 40° C. for 20 days, purity and content by HPLC; conditions: for Content: external standard method; for Purity: internal standard method
Experimental: Crystalline forms II, III, VI and VII (obtained through embodiment 3) are each placed in thermostatic containers at a temperature of 40° C. and stored for 20 days, with the stability of these crystalline samples being studied using the method of High Performance Liquid Chromatography.
1. Purity Measurement of the Sample
Chromatographic conditions: Octadecyl silane chemically bonded silica is used as packing; a mixed solution of 10 mmol/L phosphate buffer (adjusted to pH 7.0 with sodium hydroxide) and acetonitrile in the ratio 2:7 by volume acts as the mobile phase; column temperature 40° C.; and detection wavelength 220 nm. Purity is measured using an internal standard method.
In the mobile phase, crystalline forms II, III, VI and VII are distributed into 1 mg/mL solutions, 10 μL of each of which are then passed into a liquid chromatograph, with their chromatograms being recorded.
The reference sample purity measurement method was used, with measurements being made using an external standard method, the results are shown in Table I.

[2] = Determination of crystalline stability (pharmacopoeia stability assessment method); parameters: key: ✓: stable; x: unstable; conditions: for Crystalline stability, influencing factor: high temperature / Crystalline stability, influencing factor: high humidity / Crystalline stability, influencing factor: illumination: exposed for 10 days; for Crystalline stability, influencing factor: high temperature: 60° C.; for Crystalline stability, influencing factor: high humidity: 92.5% RH; for Crystalline stability, influencing factor: high humidity / Crystalline stability, long term testing (6 months) / Crystalline stability, long term testing (9 months) / Crystalline stability, long term testing (12 months): 25° C.; for Crystalline stability, influencing factor: illumination: 4500 lx; for Crystalline stability, accelerated testing: hermetically sealed for 6 months, 40° C., 75% RH; for Crystalline stability, long term testing (6 months) / Crystalline stability, long term testing (9 months) / Crystalline stability, long term testing (12 months): hermetically sealed, 60% RH
Experimental: 4. Determination of Crystalline Stability
Measured using the pharmacopoeia stability assessment method: • 1) Influencing factor testing (exposed for 10 days): high temperature (60° C.), illumination (4500 lx), high humidity (92.5% RH, 25° C.) • 2) Accelerated testing (hermetically sealed for 6 months): temperature 40° C., humidity 75% RH • 3) Long term testing (hermetically sealed for 12 months): temperature 25° C., humidity 60% RH

[3] = Measurement of water solubility (HPLC, external standard method)
Text: 3. Measurement of Water Solubility
The HPLC method was used to determine water solubility, with measurements being made using an external standard method.

[4] = After storage in thermostatically controlled containers at 40° C. for 20 days

COc1ccc2cccc(CCNC(C)=O)c2c1 [Crystalline form II, N-[2-(7-methoxy-1-naphthyl)ethyl]acetamide]
Content [1, 4]: 99.6%
Purity [1, 4]: 99.3%
Content ([1]; Before storage): 99.5%
Purity ([1]; Before storage): 99.7%
Crystalline stability, influencing factor: high temperature [2]: ✓*
Crystalline stability, influencing factor: high humidity [2]: ✓
Crystalline stability, influencing factor: illumination [2]: ✓
Crystalline stability, accelerated testing [2]: ✓
Crystalline stability, long term testing (6 months) [2]: ✓
Crystalline stability, long term testing (9 months) [2]: ✓
Crystalline stability, long term testing (12 months) [2]: ✓
solubility [3]: 301 µg/mL (≈ 1240 µM)

COc1ccc2cccc(CCNC(C)=O)c2c1 [Crystalline form III, N-[2-(7-methoxy-1-naphthyl)ethyl]acetamide]
Content [1, 4]: 99.4%
Purity [1, 4]: 99.3%
Content ([1]; Before storage): 99.5%
Purity ([1]; Before storage): 99.9%

COc1ccc2cccc(CCNC(C)=O)c2c1 [Crystalline form VI, N-[2-(7-methoxy-1-naphthyl)ethyl]acetamide]
Content [1, 4]: 99.1%
Purity [1, 4]: 99.6%
Content ([1]; Before storage): 99.3%
Purity ([1]; Before storage): 99.7%
Crystalline stability, influencing factor: high temperature [2]: x*
Crystalline stability, influencing factor: high humidity [2]: ✓
Crystalline stability, influencing factor: illumination [2]: ✓
Crystalline stability, accelerated testing [2]: ✓
Crystalline stability, long term testing (6 months) [2]: ✓
Crystalline stability, long term testing (9 months) [2]: ✓
Crystalline stability, long term testing (12 months) [2]: x

COc1ccc2cccc(CCNC(C)=O)c2c1 [Crystalline form VII, N-[2-(7-methoxy-1-naphthyl)ethyl]acetamide]
Content [1, 4]: 99.6%
Purity [1, 4]: 99.7%
Content ([1]; Before storage): 99.8%
Purity ([1]; Before storage): 99.8%
Crystalline stability, influencing factor: high temperature [2]: ✓
Crystalline stability, influencing factor: high humidity [2]: ✓
Crystalline stability, influencing factor: illumination [2]: ✓
Crystalline stability, accelerated testing [2]: ✓
Crystalline stability, long term testing (6 months) [2]: ✓
Crystalline stability, long term testing (9 months) [2]: ✓
Crystalline stability, long term testing (12 months) [2]: ✓
solubility ([3]; read-out: Solubility): 330 µg/mL (≈ 1360 µM)
